Measurements taken from patent US10407467B2, “Polymyxin derivatives and their use in combination therapy together with different antibiotics” (priority 2013, dated 2019).
Where a name gives a salt, the structure may show the parent alone. Bridge positions count the residues as written; N and C are the ends. Square brackets hold non-standard residues; d marks the D form. Peptide text beside a SMILES is read from it. * marks the point of attachment. ξ: configuration not given here. Thr(3ξ) = CC(O)[C@H](N)C(=O)O; Dab = NCC[C@H](N)C(=O)O; Dap = NC[C@H](N)C(=O)O; X4 = NC1CCCC1C(=O)*

Assays:
Type in all cases: cell-based
Klebsiella pneumoniae [1] = assay: MIC, compound in combination with a second agent (broth microdilution); settings: 1:1 (wt:wt) combination with Rifampicin, MIC = total drug concentration
Outline: (§1)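 Read-out is the total-drug MIC of a 1:1 weight ratio combination with another agent, e.g. rifampicin. Duplicates within 2-fold gave the lower value; wider spread meant a non-valid assay. Where compounds were tested multiple times, the mode is given.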

Acinetobacter baumannii [2] = assay: as above; settings: 1:1 (wt:wt) combination with Rifampicin, MIC = total drug concentration
Outline: as §1

Escherichia coli [3] = assay: as above; settings: 1:1 (wt:wt) combination with Rifampicin, MIC = total drug concentration
Outline: as §1

Pseudomonas aeruginosa [4] = assay: as above; settings: 1:1 (wt:wt) combination with Rifampicin, MIC = total drug concentration
Outline: as §1

Klebsiella pneumoniae [5] = assay: MIC, sole activity (no second agent); settings: in the absence of Rifampicin
Outline: (§2)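 Up to four strains per species were tested in cation-adjusted Mueller-Hinton broth, with inoculum made by direct colony suspension from 18-24 hour Mueller-Hinton agar plates, adjusted to 0.5 McFarland. Duplicates differing by under 2-fold gave the lower value; greater spread voided the run. Values are relative to Polymyxin B.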

Acinetobacter baumannii [6] = assay: MIC, sole activity (no second agent); settings: in the absence of Rifampicin
Outline: as §2

Escherichia coli [7] = assay: MIC, sole activity (no second agent); settings: in the absence of Rifampicin
Outline: as §2

Pseudomonas aeruginosa [8] = assay: MIC, sole activity (no second agent); settings: in the absence of Rifampicin
Outline: as §2

CC(C)C[C@@H]1NC(=O)[C@@H](Cc2ccccc2)NC(=O)[C@H](CCN)NC(=O)[C@@H](NC(=O)[C@H](CN)NC(=O)[C@@H](NC(=O)C2CCCC2N)C(C)O)CCNC(=O)[C@H](C(C)O)NC(=O)[C@H](CCN)NC(=O)[C@H](CCN)NC1=O (stereo partly drawn) [Example 43, [2-Amino-cyclopentane-carbonyl]-L-Thr-L-Dap-polymyxin B hepatapeptide, TFA salt] (X4-[Thr(3ξ)][Dap][Dab][Dab][dF]L[Dab][Dab][Thr(3ξ)]; lactam 3-C)
MIC K. pneumoniae ATCC 4352 (Klebsiella pneumoniae [1]; strain ATCC 4352): 0.125 micrograms/mL
MIC K. pneumoniae ATCC-BAA-2146 (Klebsiella pneumoniae [1]; strain ATCC-BAA-2146): 0.25 micrograms/mL
MIC K. pneumoniae CCUG-59348 (Klebsiella pneumoniae [1]; strain CCUG-59348): 2 micrograms/mL
MIC A. baumannii ATCC BAA-747 (Acinetobacter baumannii [2]; strain ATCC BAA-747): 0.125 micrograms/mL
MIC A. baumannii CCUG57249 (Acinetobacter baumannii [2]; strain CCUG57249): ≤0.06 micrograms/mL
MIC A. baumannii NCTC 13423 (Acinetobacter baumannii [2]; strain NCTC 13423): ≤0.06 micrograms/mL
MIC A. baumannii NCTC 13424 (Acinetobacter baumannii [2]; strain NCTC 13424): 0.125 micrograms/mL
MIC E. coli ATCC25922 (Escherichia coli [3]; strain ATCC25922): 0.125 micrograms/mL
MIC E. coli NCTC9001 (Escherichia coli [3]; strain NCTC9001): 0.125 micrograms/mL
MIC P. aeruginosa ATCC 27853 (Pseudomonas aeruginosa [4]; strain ATCC 27853): 0.125 micrograms/mL
MIC P. aeruginosa ATCC CRM-9027 (Pseudomonas aeruginosa [4]; strain ATCC CRM-9027): 0.125 micrograms/mL
MIC P. aeruginosa ATCC-47 (Pseudomonas aeruginosa [4]; strain ATCC-47): 0.125 micrograms/mL
MIC P. aeruginosa CCUG 59626 (Pseudomonas aeruginosa [4]; strain CCUG 59626): 0.125 micrograms/mL
MIC K. pneumoniae ATCC 4352 (Klebsiella pneumoniae [5]; strain ATCC 4352): 0.5 micrograms/mL
MIC K. pneumoniae ATCC-BAA2146 (Klebsiella pneumoniae [5]; strain ATCC-BAA2146): 4 micrograms/mL
MIC K. pneumoniae CCUG-59348 (Klebsiella pneumoniae [5]; strain CCUG-59348): >32 micrograms/mL
MIC A. baumannii ATCC13424 (Acinetobacter baumannii [6]; strain ATCC13424): 0.25 micrograms/mL
MIC A. baumannii ATCCBAA-747 (Acinetobacter baumannii [6]; strain ATCCBAA-747): 0.5 micrograms/mL
MIC A. baumannii CCUG57249 (Acinetobacter baumannii [6]; strain CCUG 57249): 0.5 micrograms/mL
MIC A. baumannii NCTC 13423 (Acinetobacter baumannii [6]; strain NCTC13423): 0.125 micrograms/mL
MIC E. coli ATCC25922 (Escherichia coli [7]; strain ATCC25922): 2 micrograms/mL
MIC E. coli NCTC9001 (Escherichia coli [7]; strain NCTC9001): 16 micrograms/mL
MIC P. aeruginosa ATCC 27853 (Pseudomonas aeruginosa [8]; strain ATCC27853): 0.125 micrograms/mL
MIC P. aeruginosa ATCC-47 (Pseudomonas aeruginosa [8]; strain ATCC-47): 1 micrograms/mL
MIC P. aeruginosa ATCCCRM-9027 (Pseudomonas aeruginosa [8]; strain ATCCCRM-9027): 0.125 micrograms/mL
MIC P. aeruginosa CCUG 59626 (Pseudomonas aeruginosa [8]; strain CCUG 59626): ≤0.06 micrograms/mL
